Source: patent US12152047B2, “Anti-cancer gold compounds” (Royal Melbourne Institute of Technology, priority 2019, dated 2024)
Where two headings read alike, the source gives them in different places.

Experiments:
[1] = MTT assay (in vitro cytotoxicity), HeK-293; type: cell-based; conditions: human, HEK-293 (normal) embryonic kidney cells, 48 h incubation, mean ± SD of three experiments
Experimental: (§1) For all the assays, unless otherwise mentioned, stock solutions of the metal compounds were freshly prepared in DMSO (10 mM) and 1% DMSO in complete medium was used as a control.
(§2) The MTT [3-(4,5-dimethylthiazol-2-yl)-2,5-diphenyltetrazolium bromide] assay is based on the conversion of a yellow coloured MTT solution to purple formazan crystals by the active mitochondrial dehydrogenases of viable cells. Thus, the intensity of the produced purple colour is proportional to the number of viable cells. The cells were seeded in 96 well plates depending on cellular doubling time and were treated with solutions of the metal compounds (100 μM, 10 μm, 1 μM, 0.1 μM, 0.01 μM) after overnight incubation. The cells were further incubated for 48 h and the medium containing the test compounds was removed before addition of 100 μL MTT solution (5 mg/mL) in serum-free medium. After 4 h incubation in the dark at 37° C., the excess MTT solution was removed from the wells and 100 μL of DMSO was added to each well to solubilise the formed formazan crystals. The absorbance of formazan solution from each well was recorded using a Spectramax micro titre plate reader at 570 and 630 nm. […] For all the assays, stock solutions of gold compounds were prepared in DMSO (10 mM) and the final treatment concentrations (100 μM-0.01 μM) were made in complete growth medium.

HeLa xenografts = test: In vivo anti-tumour activity in mice xenograft model; design: species or system BALB/c Nude mice; conditions: 1 mg/kg intraperitoneal, 42 days, nude mice bearing HeLa xenografts
Experimental: The use of metal complexes or gold compounds in animal xenograft models has been previously described elsewhere for cervical cancer models or other tumour types. The efficacy of the newly synthesised novel gold compound in reducing tumour growth in cervical cancer models was tested as follows. […] Five-week-old female BALB/c Nude mice were used. HeLa tumour cells (5×10^6) resuspended in RPMI medium injected subcutaneously tumour cells in 100 μL of culture media using a 29-gauge insulin syringe into both ventral flanks, anterior to the hind leg. The mice were monitored twice daily for 48 hrs to determine if any unexpected adverse effects are observed. Tumours were allowed to establish to approximately 50 mm^3 (as determined using electronic callipers) and the mice were then randomly separated into three groups of 5.
From this stock solution, the final working concentrations for mice injections were prepared in PBS (Phosphate buffered saline, pH 7.4) with DMSO concentration not exceeding 3.6%.
Tumour volumes were measured 8 times during the 42-day period. All mice were culled after 42 days and the tumours were collected and weighed. All the animal experiments were performed in Biological Research Facility, Melbourne University according to the animal ethics number 1814422.

[2] = test system: PC3 (prostate) cancer cells; test: MTT assay (in vitro cytotoxicity), PC3; type: cell-based; conditions: ratio to cisplatin
Experimental: as §1, §2

[3] = test system: HT-1080 (bone, fibrosarcoma) cancer cells; test: MTT assay (in vitro cytotoxicity), HT-1080; type: cell-based; conditions: ratio to cisplatin
Experimental: as §1, §2

[4] = test system: HeLa (cervical) cancer cells; test: MTT assay (in vitro cytotoxicity), HeLa; type: cell-based; conditions: ratio to cisplatin
Experimental: as §1, §2

[5] = test system: A2780Cis cisplatin resistant ovarian cancer cells; test: Trypan blue assay, A2780Cis; type: cell-based
Experimental: (§3) A Trypan blue assay was conducted to determine the cytotoxicity of certain compounds of the invention towards cisplatin-sensitive (A2780) and -resistant (A2780Cis) ovarian, prostate (PC3) and colon (HT-29) cancer cells.
(§4) In order to determine the toxicity of the compounds, 5×10^4 cells per well were seeded into 24 well plates and allowed to grow for 24 hours. The cells were then treated with increasing concentrations of the compounds for 72 hours. […] The gold complexes were dissolved in DMSO immediately prior to the experiments (5 mM stock solutions). 0.25% DMSO in complete medium served as vehicle control. All treatments were performed using molar concentrations and each well received 1 mL of treatment in cell culture media (RPMI) containing 10% FBS and 1% penicillin and streptomycin. After 72 hours of treatment, the media was collected from each well in separate tubes in order to include dead cells in the cell count. Cells from the plate were removed using 200 μL of 0.25% Trypsin-EDTA for 3 minutes at 37° C. Trypsin was neutralised with the media originally removed from the cells and centrifuged at 1200 rpm for 5 minutes. The supernatant was discarded and the cells were resuspended in 100 μL of fresh complete media. From this, 20 μL of cell suspension was removed, mixed with an equal volume of Trypan Blue and the cells were counted using a haemocytometer.

[6] = test system: A2780 ovarian cancer cells; test: Trypan blue assay, A2780; type: cell-based
Experimental: as §3, §4

[7] = test system: PC3 prostate cancer cells; test: Trypan blue assay, PC3; type: cell-based
HT-29 colon cancer cells = test: Trypan blue assay, HT-29; type: cell-based
Experimental: as §3, §4

[8] = test system: cisplatin-resistant ovarian cancer cells (A2780Cis); test: Dose dependent study, trypan blue assay, A2780Cis; type: cell-based; conditions: at 0.39 μM, 72 hours treatment

Structure (SMILES): S=P(c1ccccc1)(c1ccccc1)c1cccc[c]1[Au][PH]12CN3CN(CN(C3)C1)C2 [Compound 1, [Au(PTA){κC-2-C6H4P(S)Ph2}]]
- IC50 at 48 h [1]: 0.38 ± 0.11 µM
- mouse death or body weight loss after treatment (HeLa xenografts): no mouse death or body weight loss
- higher cytotoxicity than cisplatin against prostate cancer cells [2]: 3.5 fold
- higher cytotoxicity than cisplatin against bone cancer cells [3]: 7.8 fold
- higher cytotoxicity than cisplatin towards cervical cancer cells [4]: approximately 27 fold

Structure (SMILES): S=P(c1ccccc1)(c1ccccc1)c1cccc[c]1[Au][P+](c1ccccc1)(c1ccccc1)c1ccccc1 [Compound 2, [Au(PPh3){κC-2-C6H4P(S)Ph2}]]
- IC50 at 48 h [1]: 5.81 ± 0.35 µM

Structure (SMILES): CC(=O)OC[C@H]1O[C@@H]([S-])[C@H](OC(C)=O)[C@@H](OC(C)=O)[C@@H]1OC(C)=O.CCP(CC)CC.[Au+] [auranofin]
- IC50 [5]: 710 ± 60 nM
- IC50 [6]: 80 ± 10 nM
- IC50 [7]: 440 ± 50 nM
- IC50 (HT-29 colon cancer cells): 510 nM

Structure (SMILES): N.N.[Cl][Pt][Cl] [Cisplatin]
- IC50 ([5]; Trypan blue, 72 hours treatment, read-out: In vitro cytotoxicity IC50, A2780Cis): > 25000 nM
- IC50 ([6]; Trypan blue, 72 hours treatment, read-out: In vitro cytotoxicity IC50, A2780): 1400 ± 130 nM
- tumour volume inhibition (HeLa xenografts; compared to solvent control): 29%
- effect on cell viability [8]: no significant effect
- IC50 (HT-29 colon cancer cells; Trypan blue, 72 hours treatment, read-out: In vitro cytotoxicity IC50, HT-29): > 25000 nM

Structure (SMILES): COc1cc([C@@H]2c3cc4c(cc3[C@@H](O[C@@H]3O[C@@H]5CO[C@@H](C)O[C@H]5[C@H](O)[C@H]3O)[C@H]3COC(=O)[C@H]23)OCO4)cc(OC)c1O [etoposide]
- effect on cell viability [8]: no significant effect
